Test results taken from ChEMBL document CHEMBL5113402, “Inhibition of cytochrome P450 monooxygenase-catalyzed oxylipin formation by flavonoids: Evaluation of structure-activity relationship towards CYP4F2-selective inhibitors” (Eur J Med Chem, 2022).
pIC50: −log10 of the molar value.

Key:
[1] = molecular target: CYP450 (EpETrE formation) (Homo sapiens, UniProt P04798+P05177+P05181+P08684+P10632+P10635+P11509+P11712+P13584+P20813+P20815+P20853+P24462+P24903+P33260+P33261+P51589+P78329+P98187+Q02928+Q08477+Q16678+Q16696+Q5TCH4+Q6VVX0+Q7Z449+Q8TAV3+Q96SQ9+Q9HB55); assay: Inhibition of CYP450 in human liver microsomes assessed as inhibition of EpETrE formation at 10 uM in presence of arachidonic acid and NADPH by multi-enzyme assay based LC-MS/MS analysis relative to control; format: ADME, Microsome; details: probe arachidonic acid
[2] = molecular target: T1, CYP450 (20-HETE formation) (Homo sapiens, UniProt P04798+P05177+P05181+P08684+P10632+P10635+P11509+P11712+P13584+P20813+P20815+P20853+P24462+P24903+P33260+P33261+P51589+P78329+P98187+Q02928+Q08477+Q16678+Q16696+Q5TCH4+Q6VVX0+Q7Z449+Q8TAV3+Q96SQ9+Q9HB55); assay: Inhibition of CYP450 in human liver microsomes assessed as inhibition of 20-HETE formation in presence of arachidonic acid and NADPH by multi-enzyme assay based LC-MS/MS analysis; format: ADME, Microsome; details: probe arachidonic acid
[3] = Inhibition of CYP450 in B6C3F1 mouse liver microsomes assessed as inhibition of 20-HETE formation in presence of arachidonic acid and NADPH by multi-enzyme assay based LC-MS/MS analysis relative to control; format: ADME, Microsome
[4] = Inhibition of CYP450 in B6C3F1 mouse liver microsomes assessed as inhibition of 20-HETE formation in presence of arachidonic acid and NADPH by multi-enzyme assay based LC-MS/MS analysis; format: ADME, Microsome
Cytochrome P450 4F2 = molecular target: T2, Cytochrome P450 4F2 (Homo sapiens, UniProt P78329); assay: Inhibition of recombinant human CYP4F2 expressed in baculovirus-infected insect cells in presence of arachidonic acid and NADPH incubated for 15 mins by jump-dilution assay; format: ADME
T2 sequence (P78329 whole entry): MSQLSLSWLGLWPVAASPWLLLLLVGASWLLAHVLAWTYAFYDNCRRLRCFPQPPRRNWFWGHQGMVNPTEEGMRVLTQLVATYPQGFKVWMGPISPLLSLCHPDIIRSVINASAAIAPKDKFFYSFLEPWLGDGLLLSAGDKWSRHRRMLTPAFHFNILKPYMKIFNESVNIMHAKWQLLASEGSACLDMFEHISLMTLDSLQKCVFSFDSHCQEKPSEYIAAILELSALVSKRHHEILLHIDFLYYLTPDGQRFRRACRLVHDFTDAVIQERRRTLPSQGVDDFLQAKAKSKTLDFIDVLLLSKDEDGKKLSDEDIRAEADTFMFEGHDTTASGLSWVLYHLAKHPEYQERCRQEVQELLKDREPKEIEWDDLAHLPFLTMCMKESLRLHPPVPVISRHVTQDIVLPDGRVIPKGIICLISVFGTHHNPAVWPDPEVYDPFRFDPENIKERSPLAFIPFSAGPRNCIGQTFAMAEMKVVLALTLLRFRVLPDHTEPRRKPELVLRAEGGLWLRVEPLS

Cytochrome P450 4A11 = molecular target: T3, Cytochrome P450 4A11 (Homo sapiens, UniProt Q02928); assay: Inhibition of recombinant human CYP4A11 expressed in baculovirus-infected insect cells in presence of arachidonic acid and NADPH incubated for 15 mins by jump-dilution assay relative to control; format: ADME
T3 sequence (Q02928 whole entry): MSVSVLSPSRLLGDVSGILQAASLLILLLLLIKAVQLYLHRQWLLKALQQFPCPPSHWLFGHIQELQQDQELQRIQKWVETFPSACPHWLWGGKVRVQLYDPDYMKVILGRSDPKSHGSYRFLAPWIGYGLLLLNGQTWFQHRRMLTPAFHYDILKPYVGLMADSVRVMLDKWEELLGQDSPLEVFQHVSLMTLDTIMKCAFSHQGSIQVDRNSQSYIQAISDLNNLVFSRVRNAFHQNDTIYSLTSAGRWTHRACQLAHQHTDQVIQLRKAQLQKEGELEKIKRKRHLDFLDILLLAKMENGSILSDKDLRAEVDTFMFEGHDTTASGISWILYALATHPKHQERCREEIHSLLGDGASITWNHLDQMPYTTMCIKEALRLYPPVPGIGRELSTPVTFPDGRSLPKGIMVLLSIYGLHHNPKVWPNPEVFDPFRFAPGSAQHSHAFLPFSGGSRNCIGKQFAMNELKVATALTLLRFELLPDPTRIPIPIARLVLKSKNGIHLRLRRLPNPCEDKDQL

[5] = molecular target: T1, CYP450 (20-HETE formation); assay: Inhibition of CYP450 in human HCT-116 cells assessed as 20-HETE formation in presence of arachidonic acid incubated for 15 mins by multi-enzyme assay based LC-MS/MS analysis relative to control; format: ADME, cell-based; details: probe arachidonic acid
[6] = molecular target: T1, CYP450 (20-HETE formation); assay: Inhibition of CYP450 in human HCT-116 cells assessed as 20-HETE formation in presence of arachidonic acid incubated for 15 mins by multi-enzyme assay based LC-MS/MS analysis; format: ADME, cell-based; details: probe arachidonic acid
[7] = Octanol-water partition coefficient, logP of the compound incubated for 1 hr by HPLC analysis; format: physicochemical
[8] = Plasma protein binding in human assessed as bound fraction by rapid equilibrium dialysis assay; format: ADME, cell-free; details: read-out: PPB
[9] = Apparent permeability of the compound by PAMPA assay; format: ADME
[10] = Drug recovery in human HCT-116 cells incubated for 24 hrs; format: ADME, cell-based; details: read-out: Drug recovery

SMILES: O=c1cc(-c2ccc(C(F)(F)F)cc2)oc2ccccc12
- inhibition at 10 µM [1]: < 15%
- pIC50 [2]: 5.31
- pIC50 [3]: 6.15
- pIC50 [4]: 5.12
- pIC50 (Cytochrome P450 4F2): 6.06
- pIC50 (Cytochrome P450 4A11): 4.30
- IC50 at 15 min [5]: 1900 nM
- IC50 at 15 min [6]: 1100 nM
- logP at 1 h [7]: 4.06
- fraction unbound [8]: < 0.05
- Papp [9]: 4.6 ×10⁻⁶ cm/s
- remaining at 24 h [10]: 89%
